# Test results as given in patent US10961200B2, “Small molecule inhibitors of lactate dehydrogenase and methods of use thereof” (THE UNITED STATES OF AMERICA, AS REPRESENTED BY THE …, priority 2014, dated 2021).
# Target: Human LDHA (Homo sapiens (Human), UniProt P00338)
# Assay: human LDHA primary biochemical assay (resazurin/diaphorase coupled, fluorescence)
# Settings: LDHA inhibitory activity, assay of Example 1; activity level classes
# From the text: Test compounds were placed in a Greiner Bio-One (Monroe, N.C.) 1536-well black solid bottom assay plate. 200 millimolar (mM) Tris HCl, pH 7.4, 100 micromolar […] EDTA and 0.01% TWEEN-20™, final concentration, was used as the assay buffer. The LDHA reagent was 2 nanomolar (nM) Human LDHA (Meridian Life Science, Inc., Memphis, Tenn.), final concentration, in assay buffer.
row,SMILES,IC50
1,"NS(=O)(=O)c1ccc(Cc2c(-c3cccc4ccccc34)nn(-c3nc(C(=O)O)cs3)c2O)cc1 [Compound 81, 2-(5-hydroxy-3-(naphthalen-1-yl)-4-(4-sulfamoylbenzyl)-1H-pyrazol-1-yl)thiazole-4-carboxylic acid]",1 to 57 µM
2,"NS(=O)(=O)c1ccc(Cc2c(-c3cccnc3)nn(-c3nc(C(=O)O)cs3)c2O)cc1 [Compound 82, 2-(5-hydroxy-3-(pyridin-3-yl)-4-(4-sulfamoylbenzyl)-1H-pyrazol-1-yl)thiazole-4-carboxylic acid]",1 to 57 µM
3,"NS(=O)(=O)c1ccc(Cc2c(-c3cccc4cc(F)ccc34)nn(-c3nc(C(=O)O)cs3)c2O)cc1 [Compound 89, 2-(3-(6-fluoronaphthalen-1-yl)-5-hydroxy-4-(4-sulfamoylbenzyl)-1H-pyrazol-1-yl)thiazole-4-carboxylic acid]",> 57 µM
4,"O=C(O)c1csc(-n2nc(-c3cccc(N4CCOCC4)c3)cc2O)n1 [Compound 93, 2-(5-hydroxy-3-(3-morpholinophenyl)-1H-pyrazol-1-yl)thiazole-4-carboxylic acid]",> 57 µM
5,"O=C(O)c1csc(-n2nc(-c3cc(F)cc(F)c3)cc2O)n1 [Compound 95, 2-(3-(3,5-difluorophenyl)-5-hydroxy-1H-pyrazol-1-yl)thiazole-4-carboxylic acid]",> 57 µM
6,"CN(C)C(=O)Oc1cc(-c2ccc(F)c(F)c2)nn1-c1nc(C(=O)Oc2ccc3c(c2)CCC3)cs1 [Compound 107, 2,3-dihydro-1H-inden-5-yl 2-(3-(3,4-difluorophenyl)-5-((dimethylcarbamoyl)oxy)-1H-pyrazol-1-yl)thiazole-4-carboxylate]",> 57 µM

# Further lines, results first:
row,IC50,SMILES
1,> 57 µM,"O=C(O)c1csc(-n2nc(-c3ccc(F)c(F)c3)cc2C(=O)O)n1 [Compound 71, 2-(5-carboxy-3-(3,4-difluorophenyl)-1H-pyrazol-1-yl)thiazole-4-carboxylic acid]"
2,> 57 µM,"CS(=O)(=O)c1cccc(-c2cc(O)n(-c3nc(C(=O)O)cs3)n2)c1 [Compound 92, 2-(5-hydroxy-3-(3-(methylsulfonyl)phenyl)-1H-pyrazol-1-yl)thiazole-4-carboxylic acid]"
3,> 57 µM,"CS(=O)(=O)c1cc(-c2cc(O)n(-c3nc(C(=O)O)cs3)n2)ccc1F [Compound 94, 2-(3-(4-fluoro-3-(methylsulfonyl)phenyl)-5-hydroxy-1H-pyrazol-1-yl)thiazole-4-carboxylic acid]"
4,> 57 µM,"O=C(O)c1csc(-n2nc(-c3cccc(F)c3F)cc2O)n1 [Compound 96, 2-(3-(2,3-difluorophenyl)-5-hydroxy-1H-pyrazol-1-yl)thiazole-4-carboxylic acid]"
5,> 57 µM,"CCOC(=O)OC(C)OC(=O)c1csc(-n2nc(-c3ccc(F)c(F)c3)cc2OC(C)OC(=O)OCC)n1 (stereo not shown) [Compound 98, 1-((ethoxycarbonyl)oxy)ethyl 2-(3-(3,4-difluorophenyl)-5-(1-((ethoxycarbonyl)oxy)ethoxy)-1H-pyrazol-1-yl)thiazole-4-carboxylate]"
6,> 57 µM,"O=C(O)c1csc(-n2nc(-c3c(F)cccc3F)cc2O)n1 [Compound 100, 2-(3-(2,6-difluorophenyl)-5-hydroxy-1H-pyrazol-1-yl)thiazole-4-carboxylic acid]"
7,> 57 µM,"O=C(O)c1csc(-n2nc(-c3cc(F)ccc3F)cc2O)n1 [Compound 102, 2-(3-(2,5-difluorophenyl)-5-hydroxy-1H-pyrazol-1-yl)thiazole-4-carboxylic acid]"
8,> 57 µM,"CS(=O)(=O)Nc1cc(-c2cc(O)n(-c3nc(C(=O)O)cs3)n2)ccc1F [Compound 103, 2-(3-(4-fluoro-3-(methylsulfonamido)phenyl)-5-hydroxy-1H-pyrazol-1-yl)thiazole-4-carboxylic acid]"
9,> 57 µM,"O=C(O)c1csc(-n2nc(-c3ccc(F)c(Cc4ccccc4)c3)cc2O)n1 [Compound 104, 2-(3-(3-benzyl-4-fluorophenyl)-5-hydroxy-1H-pyrazol-1-yl)thiazole-4-carboxylic acid]"
10,> 57 µM,"CCOC(=O)OC(C)OC(=O)c1csc(-n2nc(-c3ccc(F)c(F)c3)cc2O)n1 (stereo not shown) [Compound 105, 1-((ethoxycarbonyl)oxy)ethyl 2-(3-(3,4-difluorophenyl)-5-hydroxy-1H-pyrazol-1-yl)thiazole-4-carboxylate]"
11,> 57 µM,"O=C(OCCN1CCOCC1)c1csc(-n2nc(-c3ccc(F)c(F)c3)cc2O)n1 [Compound 106, 2-morpholinoethyl 2-(3-(3,4-difluorophenyl)-5-hydroxy-1H-pyrazol-1-yl)thiazole-4-carboxylate]"
12,> 57 µM,"O=C(Oc1ccc2c(c1)CCC2)c1csc(-n2nc(-c3ccc(F)c(F)c3)cc2O)n1 [Compound 108, 2,3-dihydro-1H-inden-5-yl 2-(3-(3,4-difluorophenyl)-5-hydroxy-1H-pyrazol-1-yl)thiazole-4-carboxylate]"

# Same assay, conditions: read-out: Inhibitory activity IC50
row,SMILES,IC50
1,"NC(=O)c1csc(-n2nc(-c3cccc(-c4ccccc4)c3)c(Cc3ccc(S(N)(=O)=O)cc3)c2O)n1 [Compound 70, 2-(3-([1,1′-biphenyl]-3-yl)-5-hydroxy-4-(4-sulfamoylbenzyl)-1H-pyrazol-1-yl)thiazole-4-carboxamide]",> 57 µM
2,"NS(=O)(=O)c1ccc(Cc2c(-c3cccc(-c4ccccc4)c3)nn(-c3nc(-c4nnn[nH]4)cs3)c2O)cc1 [Compound 72, 4-((1-(4-(1H-tetrazol-5-yl)thiazol-2-yl)-3-([1,1′-biphenyl]-3-yl)-5-hydroxy-1H-pyrazol-4-yl)methyl)benzenesulfonamide]",1 to 57 µM
3,"NS(=O)(=O)c1ccc(-c2cn(-c3nc(C(=O)O)cs3)nc2-c2ccccc2)cc1 [Compound 76, 2-(3-phenyl-4-(4-sulfamoylphenyl)-1H-pyrazol-1-yl)thiazole-4-carboxylic acid]",1 to 57 µM
4,"NC(=O)c1csc(-n2nc(-c3ccccc3)c(Cc3ccc(S(N)(=O)=O)cc3)c2I)n1 [Compound 78, 2-(5-iodo-3-phenyl-4-(4-sulfamoylbenzyl)-1H-pyrazol-1-yl)thiazole-4-carboxamide]",1 to 57 µM
5,"NC(=O)c1csc(-n2cc(Cc3ccc(S(N)(=O)=O)cc3)c(-c3ccccc3)n2)n1 [Compound 79, 2-(3-phenyl-4-(4-sulfamoylbenzyl)-1H-pyrazol-1-yl)thiazole-4-carboxamide]",1 to 57 µM
6,"NS(=O)(=O)c1ccc(Cc2c(-c3ccccc3)nn(-c3nc(C(=O)O)cs3)c2Nc2cccnc2)cc1 [Compound 80, 2-(3-phenyl-5-(pyridin-3-ylamino)-4-(4-sulfamoylbenzyl)-1H-pyrazol-1-yl)thiazole-4-carboxylic acid]",1 to 57 µM
7,"Nc1c(Cc2ccc(S(N)(=O)=O)cc2)c(-c2ccccc2)nn1-c1ccc(Cl)nn1 [Compound 83, 4-((5-amino-1-(6-chloropyridazin-3-yl)-3-phenyl-1H-pyrazol-4-yl)methyl)benzenesulfonamide]",1 to 57 µM
8,"Cc1cccc(C(=O)n2nc(-c3ccccc3)c(Cc3ccc(S(N)(=O)=O)cc3)c2N)c1 [Compound 84, 4-((5-amino-1-(3-methylbenzoyl)-3-phenyl-1H-pyrazol-4-yl)methyl)benzenesulfonamide]",1 to 57 µM
9,"Nc1c(Cc2ccc(S(N)(=O)=O)cc2)c(-c2ccccc2)nn1C(=O)c1cccc(F)c1 [Compound 85, 4-((5-amino-1-(3-fluorobenzoyl)-3-phenyl-1H-pyrazol-4-yl)methyl)benzenesulfonamide]",1 to 57 µM
10,"Cc1csc(-n2nc(-c3ccccc3)c(Cc3ccc(S(N)(=O)=O)cc3)c2N)n1 [Compound 86, 4-((5-amino-1-(4-methylthiazol-2-yl)-3-phenyl-1H-pyrazol-4-yl)methyl)benzenesulfonamide]",1 to 57 µM
11,"NS(=O)(=O)c1ccc(Cc2c(-c3ccccc3)nn(-c3nc(C(=O)O)cs3)c2Cc2nnn[nH]2)cc1 [Compound 87, 2-(5-((1H-tetrazol-5-yl)methyl)-3-phenyl-4-(4-sulfamoylbenzyl)-1H-pyrazol-1-yl)thiazole-4-carboxylic acid]",1 to 57 µM
12,"NS(=O)(=O)c1ccc(Cc2c(-c3ccccc3)nn(-c3nc(CO)cs3)c2C(F)(F)F)cc1 [Compound 88, 4-((1-(4-(hydroxymethyl)thiazol-2-yl)-3-phenyl-5-(trifluoromethyl)-1H-pyrazol-4-yl)methyl)benzenesulfonamide]",1 to 57 µM
13,"NS(=O)(=O)N1CCN(Cc2cn(-c3nc(C(=O)O)cs3)nc2-c2ccccc2)CC1 [Compound 90, 2-(3-phenyl-4-((4-sulfamoylpiperazin-1-yl)methyl)-1H-pyrazol-1-yl)thiazole-4-carboxylic acid]",1 to 57 µM
14,"O=C(O)c1csc(-n2nc(-c3ccccc3)cc2O)n1 [Compound 91, 2-(5-hydroxy-3-phenyl-1H-pyrazol-1-yl)thiazole-4-carboxylic acid]",> 57 µM
15,"O=C(O)c1csc(-n2nc(-c3ccc(F)cc3F)cc2O)n1 [Compound 97, 2-(3-(2,4-difluorophenyl)-5-hydroxy-1H-pyrazol-1-yl)thiazole-4-carboxylic acid]",> 57 µM

# Further lines, results first:
row,IC50,SMILES
1,1 to 57 µM,"CCOC(=O)c1csc(-n2nc(-c3cccc(-c4ccccc4)c3)c(Cc3ccc(S(N)(=O)=O)cc3)c2O)n1 [Compound 73, ethyl 2-(3-([1,1′-biphenyl]-3-yl)-5-hydroxy-4-(4-sulfamoylbenzyl)-1H-pyrazol-1-yl)thiazole-4-carboxylate]"
2,1 to 57 µM,"N#CCc1cc(-c2ccc(F)c(F)c2)nn1-c1nc(C(=O)O)cs1 [Compound 74, 2-(5-(cyanomethyl)-3-(3,4-difluorophenyl)-1H-pyrazol-1-yl)thiazole-4-carboxylic acid]"
3,1 to 57 µM,"O=C(O)c1csc(-n2nc(-c3ccc(F)c(F)c3)cc2Cc2nnn[nH]2)n1 [Compound 75, 2-(5-((1H-tetrazol-5-yl)methyl)-3-(3,4-difluorophenyl)-1H-pyrazol-1-yl)thiazole-4-carboxylic acid]"
4,1 to 57 µM,"CCOC(=O)c1csc(-n2nc(-c3ccccc3)c(Cc3ccc(S(N)(=O)=O)cc3)c2C(F)(F)F)n1 [Compound 77, ethyl 2-(3-phenyl-4-(4-sulfamoylbenzyl)-5-(trifluoromethyl)-1H-pyrazol-1-yl)thiazole-4-carboxylate]"
